Reference: ChEMBL document CHEMBL4196051, “Pyrazole-pyrazoline as promising novel antimalarial agents: A mechanistic study” (Eur J Med Chem, 2018)

Experiments:
Plasmodium falciparum [1] = experiment: Antimalarial activity against chloroquine-sensitive Plasmodium falciparum 3D7 infected in red blood cells assessed as reduction in mature schizonts formation after 24 hrs by Giemsa-staining based assay; type: functional, organism-based; settings: 3D7, 24 h
[2] = Cytotoxicity against African green monkey Vero cells assessed as reduction in cell viability after 72 hrs by MTT assay; type: cell-based; settings: chlorocebus sabaeus
[3] = Selectivity index, ratio of CC50 for African green monkey Vero cells to EC50 for chloroquine-sensitive Plasmodium falciparum 3D7; type: toxicity; settings: read-out: Ratio CC50/EC50
[4] = Selectivity index, ratio of CC50 for African green monkey Vero cells to EC50 for chloroquine-resistant Plasmodium falciparum RKL9; type: toxicity; settings: read-out: Ratio CC50/EC50
Plasmodium falciparum [5] = experiment: Antimalarial activity against chloroquine-resistant Plasmodium falciparum RKL9 infected in red blood cells assessed as reduction in mature schizonts formation after 24 hrs by Giemsa-staining based assay; type: functional, organism-based; settings: RKL9, 24 h
[6] = Resistance Index, ratio of EC50 for chloroquine-resistant Plasmodium falciparum RKL9 to EC50 for chloroquine-sensitive Plasmodium falciparum 3D7; type: functional
Plasmodium berghei [7] = experiment: Antimalarial activity against Plasmodium berghei NK65 infected in Swiss albino mouse assessed as reduction in parasitemia at 5 mg/kg, po treated up to day 3 measured at day 4 by Giemsa-staining based microscopic analysis relative to control; type: functional; parameters: scale not given: the % may be the effect or the level left
Plasmodium berghei [8] = experiment: Antimalarial activity against Plasmodium berghei NK65 infected in Swiss albino mouse assessed as mean survival days at 5 mg/kg, po treated up to day 3 measured over 30 days (reference value: 7.2 days); type: functional
Plasmodium berghei [9] = experiment: Antimalarial activity against Plasmodium berghei NK65 infected in Swiss albino mouse assessed as reduction in parasitemia at 25 mg/kg, po treated up to day 3 measured at day 4 by Giemsa-staining based microscopic analysis relative to control; type: functional; parameters: scale not given: the % may be the effect or the level left
Plasmodium berghei [10] = experiment: Antimalarial activity against Plasmodium berghei NK65 infected in Swiss albino mouse assessed as reduction in parasitemia at 50 mg/kg, po treated up to day 3 measured at day 4 by Giemsa-staining based microscopic analysis relative to control; type: functional; parameters: scale not given: the % may be the effect or the level left
Plasmodium berghei [11] = experiment: Antimalarial activity against Plasmodium berghei NK65 infected in Swiss albino mouse assessed as mean survival days at 25 mg/kg, po treated up to day 3 measured over 30 days (reference value: 7.2 days); type: functional
Plasmodium berghei [12] = experiment: Antimalarial activity against Plasmodium berghei NK65 infected in Swiss albino mouse assessed as mean survival days at 50 mg/kg, po treated up to day 3 measured over 30 days (reference value: 7.2 days); type: functional
Heme [13] = experiment: Binding affinity to monomeric heme in DMSO/HEPES buffer solution at pH 7.4 by titration analysis
Heme [14] = experiment: Binding affinity to monomeric heme in DMSO/HEPES buffer solution at pH 5.6 by titration analysis
mu-oxodimeric heme = experiment: Binding affinity to mu-oxodimeric heme in 0.1M NaOH solution at pH 5.8 by titration analysis
Plasmodium falciparum [15] = experiment: Antimalarial activity against Plasmodium falciparum; type: functional, organism-based
Plasmodium falciparum [16] = experiment: Antimalarial activity against chloroquine-resistant Plasmodium falciparum W2 after 48 hrs by LDH assay; type: functional, organism-based; settings: W2, 48 h
Plasmodium falciparum [17] = experiment: Antimalarial activity against chloroquine-sensitive Plasmodium falciparum 3D7 infected in red blood cells assessed as reduction in mature schizonts formation after 72 hrs by Giemsa-staining based assay; type: functional, organism-based; settings: 3D7, 72 h
Heme [18] = experiment: Inhibition of heme crystal growth

Row | SMILES | EC50 (Plasmodium falciparum [1]) [µM] | CC50 at 72 h [2] [µM] | selectivity ratio [3] | selectivity ratio [4] | EC50 (Plasmodium falciparum [5]) [µM] | Ratio EC50 [6] | also measured
1 | NS(=O)(=O)c1ccc(N2N=C(c3ccc(F)cc3)CC2c2cn(-c3ccccc3)nc2-c2ccccc2)cc1 (configuration not stated) | 6.67 | > 807 | > 225 | > 225 |  |  | 
2 | COc1ccc(C2=NN(c3ccc(S(N)(=O)=O)cc3)C(c3cn(-c4ccccc4)nc3-c3ccc(F)cc3)C2)cc1 (configuration not stated) | 1.65 | > 53.1 | > 56.4 | > 56.4 | 2.04 | 1.44 | 
3 | NS(=O)(=O)c1ccc(N2N=C(c3ccc(O)cc3)CC2c2cn(-c3ccccc3)nc2-c2ccccc2)cc1 (configuration not stated) | 3.05 | > 161 | > 98 | > 98 |  |  | 
4 | CCN(CC)CCCC(C)Nc1ccnc2cc(Cl)ccc12 (configuration not stated) [CHLOROQUINE] | 2.97 |  |  |  | 11.2 |  | Activity (Plasmodium berghei [7]): 97.1%; MSD (Plasmodium berghei [8]): 30 days
5 | COc1ccc(C2=NN(c3ccc(S(N)(=O)=O)cc3)C(c3cn(-c4ccccc4)nc3-c3ccc(C)cc3)C2)cc1 (configuration not stated) | 1.38 | > 36.6 | > 46.8 | > 46.8 | 1.31 | 0.94 | Activity (Plasmodium berghei [9]): 68.42%; Activity (Plasmodium berghei [10]): 82.49%; MSD (Plasmodium berghei [11]): 13.4 days; MSD (Plasmodium berghei [12]): 19.8 days; log K (Heme [13]): 5.12; log K (Heme [14]): 5.58; log K (mu-oxodimeric heme): 5.19
6 | Cc1ccc(C2=NN(c3ccc(S(N)(=O)=O)cc3)C(c3cn(-c4ccccc4)nc3-c3ccc(F)cc3)C2)cc1 (configuration not stated) | 2.23 | > 90.7 | > 73.2 | > 73.2 |  |  | 
7 | COc1cccc(C2=NN(c3ccc(S(N)(=O)=O)cc3)C(c3cn(-c4ccccc4)nc3-c3ccc(C)cc3)C2)c1OC (configuration not stated) | 1.61 | > 57.4 | > 60 | > 60 | 1.55 | 0.97 | 
8 | COc1ccc(C2=NN(c3ccc(S(N)(=O)=O)cc3)C(c3cn(-c4ccccc4)nc3-c3ccc(Cl)cc3)C2)cc1 (configuration not stated) | 1.61 | 31.3 | 33.2 | 33.2 | 2.12 | 1.31 | 
9 | NS(=O)(=O)c1ccc(N2N=C(c3ccc(F)cc3)CC2c2cn(-c3ccccc3)nc2-c2ccc(F)cc2)cc1 (configuration not stated) | 6.36 | > 753 | > 212 | > 212 |  |  | 
10 | Clc1ccccc1C(c1ccccc1)(c1ccccc1)n1ccnc1 [CLOTRIMAZOLE] |  |  |  |  |  |  | IC50 (Plasmodium falciparum [15]): 12.9 µM
11 | COc1ccc(C2=NN(c3ccc(S(N)(=O)=O)cc3)C(c3cn(-c4ccccc4)nc3-c3ccc(OC)cc3)C2)cc1 (configuration not stated) | 2.26 | 104 | 78.9 | 78.9 |  |  | 
12 | NS(=O)(=O)c1ccc(N2N=C(c3ccc(Cl)cc3)CC2c2cn(-c3ccccc3)nc2-c2ccccc2)cc1 (configuration not stated) | 3.35 | > 207 | > 111 | > 111 |  |  | 
13 | Cc1ccc(C2=NN(c3ccc(S(N)(=O)=O)cc3)C(c3cn(-c4ccccc4)nc3-c3ccc(C)cc3)C2)cc1 (configuration not stated) | 1.43 | > 41.5 | > 52.8 | > 52.8 | 1.64 | 1.14 | 
14 | C[n+]1c2ccc(Br)cc2cc2[nH]c3ccc(Br)cc3c21 |  |  |  |  |  |  | IC50 (Plasmodium falciparum [16]): 4 µM
15 | NS(=O)(=O)c1ccc(N2N=C(c3ccc(Cl)cc3Cl)CC2c2cn(-c3ccccc3)nc2-c2ccccc2)cc1 (configuration not stated) | 4.58 | > 438 | > 162 | > 162 |  |  | 
16 | COc1ccc(C2=NN(c3ccc(S(N)(=O)=O)cc3)C(c3cn(-c4ccccc4)nc3-c3ccccc3)C2)cc1 (configuration not stated) | 1.42 | 40.2 | 51.4 | 51.4 | 1.78 | 1.25 | 
17 | NS(=O)(=O)c1ccc(N2N=C(c3ccc(O)cc3)CC2c2cn(-c3ccccc3)nc2-c2ccc(F)cc2)cc1 (configuration not stated) | 1.57 | 32 | 36.9 | 36.9 | 2.02 | 1.29 | 
18 | Cc1ccc(-c2nn(-c3ccccc3)cc2C2CC(c3ccccc3)=NN2c2ccc(S(N)(=O)=O)cc2)cc1 (configuration not stated) | 2.97 | > 162 | > 98 | > 98 |  |  | 
19 | COc1ccc(/C=C(\C#N)c2nc3ccccc3[nH]2)cc1 |  |  |  |  |  |  | IC50 (Plasmodium falciparum [17]): 0.069 µM
20 | NS(=O)(=O)c1ccc(N2N=C(c3ccc(Br)cc3)CC2c2cn(-c3ccccc3)nc2-c2ccc(F)cc2)cc1 (configuration not stated) | 3.08 | 49.4 | 25.9 | 25.9 |  |  | 
21 | NS(=O)(=O)c1ccc(N2N=C(c3ccc(Cl)cc3)CC2c2cn(-c3ccccc3)nc2-c2ccc(Cl)cc2)cc1 (configuration not stated) | 2.8 | > 164 | > 99 | > 99 |  |  | 
22 | Clc1ccc(COC(Cn2ccnc2)c2ccc(Cl)cc2Cl)c(Cl)c1 (configuration not stated) [MICONAZOLE] |  |  |  |  |  |  | IC50 (Heme [18]): 21.4 µM
